# Data as given in patent publication US20060292553A1, “Method for study of the genetic and functional variability of HIV and kit for using it” (Bioalliance Pharma, a corporation of France, priority 2004, published 2006).
# How the values were obtained:
# [1] = tested on: HIV-1 virus of the patient (protease and inverse transcriptase genes); assay: Trugene genotyping, interpretation of resistances from the amplicon of patient plasma; conditions: M184V, T215Y, L63P
# Source text: (§1) The procedure to generate the first specific amplicon is as follows: • 1) Viral RNA contained in a biological sample is extracted. The biological sample may be derived from a sample from the patient. It may be a blood or serum sample, but may also come from a biological fluid or a biopsy or any other tissue preparation. The biological sample may also come from a viral culture. In a general manner, a biological sample corresponds to all types of samples containing one or several HIV-1 variants. The term “HIV-1 virus” in this Example is used to mean any viral strain belonging to the sub-types B and non-B. • 2) The RNA obtained in (1) is retrotranscribed and amplified with one of the pairs of specific primers in Table 1 below to obtain an amplicon characterized by: […]
# (§2) Tables 2 and 3 below show two examples of samples of plasma in patients 1 and 2, respectively, for which the amplicons generated by the method above have made it possible to implement the genotyping according to the Trugene and Viroseq techniques and phenotyping according to the Phenoscript technique.
# The Trugene HIV-1 genotyping kit is used to determine the genotype of the virus of sub-types B and non-B. The RNA is extracted using plasma from patients, according to known techniques, the viral RNA is retrotranscribed and amplified using PCR with primers specific for the pol gene making possible amplification of a sequence of nucleic acids of 1300 pb comprising, for the protease, codons 1 to 99 and comprising, for the inverse transcriptase, codons 1 to 247. The product of RT-PCR thus obtained is used in each of the 16 sequencing reactions by using the principle of CLIP™ reaction, sequencing technique using labeled primers (dye primers). Four pairs of different primers are used for this sequencing method, two pairs for the sequencing of the protease and two other pairs for the sequencing of the inverse transcriptase. Each sequence reaction is initiated by a specific dye primer (CLIP™), then interrupted by the corresponding labeled nucleotide. All of the fragments synthesized are then separated on electrophoresis gel and analyzed by an automatic sequencer specifically indicating the fragments ending with each of the four labeled nucleotides. The sequences, once reconstituted, are compared to the sequence of a reference virus using an alignment software.
# (§3) The measurement of genetic variability is carried out using a specific sequence of nucleic acids amplified according to aspects of the method, then analyzed according to known sequencing techniques (Trugene, ViroSeq). Mutations in the genes of the protease and of the inverse transcriptase identified by these tests are interpreted according to algorithms that are updated regularly. A first score of 0 to 2 is attributed to each of the three levels of resistance determined by the interpretation. Table 11 below summarizes the interpretations given by the Trugene and ViroSeq tests as a function of the mutations identified and of the anti-retroviruses (ARV) used and assigns a genotypical score corresponding to the magnitude of the resistance.
# [2] = tested on: HIV-1 virus of the patient (protease and inverse transcriptase genes); assay: ViroSeq genotyping, evidence of resistance from the amplicon of patient plasma; conditions: M184V, T215Y, L63P
# Source text: as §1, §2
# The RNA is extracted using plasmas from patients according to a known extraction technique based on the affinity of RNA with respect to silica columns, the viral RNA is retrotranscribed and amplified using PCR with primers specific to the pol gene making possible amplification of a sequence of nucleic acids of 1800 pb comprising, for the protease, codons 1 to 99 and comprising, for the inverse transcriptase, codons 1 to 335. The DNA thus obtained is then sequenced with seven different primers according to the Big Dye™ Terminator technology, a sequencing technique using dye terminators. The sequence reaction is initiated by each specific non-labeled primer, then interrupted by each of the labeled nucleotides. All of the fragments synthesized are then separated on electrophoresis gel. The color of the fluorochrome will then be registered using an automatic sequencer (ABI Prism 377 DNA sequencer), specifically indicating the fragments ending with each of the four labeled nucleotides. The sequences, once reconstituted, are compared to the sequence of a reference virus using an alignment software.
# as §3
# [3] = tested on: HIV-1 virus of the patient (recombinant virus); assay: Phenoscript phenotyping, recombinant virus of the patient in the presence of drugs; format: cell-based
# Source text: The principle of the phenotypical tests for resistance is based on the measurement in vitro of the growth of a virus in the patient in the presence of drugs.
# Viral RNA derived from the plasma is extracted, then the regions coding for inverse transcriptase and/or protease are amplified using PCR in phenotypical tests. Amplicons are recombined in vitro in a defective vector to form a viral particle. This viral particle is placed in a culture in the presence of increasing concentrations of drugs. The results are expressed in a “fold change” ratio of IC 50 (or IC90) with respect to a control virus which corresponds to the concentration of the drug that inhibits 50% (or 90%) of the viral replication in comparison to the reference wild type virus. The resistance level is defined as a function of thresholds of sensitivity (cut off).
# as §2
# The principle of the tests of phenotypical resistance is based on the measurement in vitro of the growth of a virus in the patient in the presence of drug(s)/active agent(s), compared to a reference virus (resistance index). The level of resistance is defined as a function of thresholds of sensitivity (cut off). A second score of 0 to 2 is attributed to each of the three levels of resistance determined by the interpretation. Table 12 summarizes the interpretations given by the main phenotypical tests, PhenoSense and Phenoscript, as a function of their thresholds of sensitivity and assigns a phenotypical score corresponding to the magnitude of resistance.
# [4] = Patient 1 plasma sample, mutations D67N, K70R, K219E, K103N, V108I, P225H
# [5] = Patient 2 plasma sample, mutations M41L, L210W, M36L
smiles,measurement,setting,value
Cc1cccc(C)c1OCC(=O)N[C@@H](Cc1ccccc1)[C@@H](O)C[C@H](Cc1ccccc1)NC(=O)[C@H](C(C)C)N1CCCNC1=O [LPV],Trugene Interpretation of resistances,[1]; [4],No resistance
same,Trugene Interpretation of resistances,[1]; [5],No resistance
same,Viroseq Evidence of resistance,[2]; [4],Zero
same,Viroseq Evidence of resistance,[2]; [5],Zero
same,Phenoscript Contribution to the therapeutic response,[3]; Patient 1 plasma sample,Probable
same,Phenoscript Contribution to the therapeutic response,[3]; Patient 2 plasma sample,Probable
